# Results published in paper PMC4822341 (Cell Discovery, 2015).
# Columns and labels:
# MR = molecular target: T1, MR (Homo sapiens, UniProt P08235); assay: MR reporter assay (off-target activity); assay type: cell-based; details: steroid 1 μM; percent of 1 μM corticosterone
# T1 construct: expressed in transfected cells; host or cells: AD293
# T1 sequence (P08235 1-984): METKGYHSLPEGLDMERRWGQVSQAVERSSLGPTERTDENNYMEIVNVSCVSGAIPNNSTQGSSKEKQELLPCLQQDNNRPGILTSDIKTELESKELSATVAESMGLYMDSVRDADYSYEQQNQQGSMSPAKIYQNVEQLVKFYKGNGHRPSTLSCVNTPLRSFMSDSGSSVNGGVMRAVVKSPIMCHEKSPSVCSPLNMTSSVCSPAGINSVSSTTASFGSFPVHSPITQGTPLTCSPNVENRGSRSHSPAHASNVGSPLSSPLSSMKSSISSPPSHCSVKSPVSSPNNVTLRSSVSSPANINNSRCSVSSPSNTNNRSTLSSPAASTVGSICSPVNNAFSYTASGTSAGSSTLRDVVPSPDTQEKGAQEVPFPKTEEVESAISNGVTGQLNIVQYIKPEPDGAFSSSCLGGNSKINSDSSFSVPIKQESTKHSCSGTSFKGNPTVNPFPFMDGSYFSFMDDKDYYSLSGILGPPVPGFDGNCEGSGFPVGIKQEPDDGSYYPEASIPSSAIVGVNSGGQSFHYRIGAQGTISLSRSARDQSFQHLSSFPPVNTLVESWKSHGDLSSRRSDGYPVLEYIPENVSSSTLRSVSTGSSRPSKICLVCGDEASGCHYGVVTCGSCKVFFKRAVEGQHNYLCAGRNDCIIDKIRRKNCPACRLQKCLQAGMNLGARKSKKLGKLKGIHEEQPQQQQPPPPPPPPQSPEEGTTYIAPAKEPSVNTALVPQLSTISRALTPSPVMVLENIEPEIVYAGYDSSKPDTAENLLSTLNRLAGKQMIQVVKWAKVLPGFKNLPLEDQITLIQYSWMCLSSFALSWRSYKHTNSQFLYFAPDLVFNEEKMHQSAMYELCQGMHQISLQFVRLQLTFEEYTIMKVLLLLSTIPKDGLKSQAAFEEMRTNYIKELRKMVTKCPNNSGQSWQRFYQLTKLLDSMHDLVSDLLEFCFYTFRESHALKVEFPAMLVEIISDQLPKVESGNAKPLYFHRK
# Protocol: Similar to previous reports, for induction 100 ng pHHLuc (MMTV-Luc) plasmid, 0.1 ng pRShGR together with 5 ng phRGtkRenilla were transfected by X-tremeGENE 9 (Roche) into AD293 cells per well in 24-well plate. For transrepression, 10 ng AP-1-Luc or 10ng pNF-κB-luc, 100 ng pRShGR and 5 ng phRGtkRenilla were transfected into AD293 cells per well. We used the same transfection protocol for the MR and PR assays, except of the use of 0.1 ng MR or PR plasmid to substitute GR. One day after transfection, for induction, cells were directly treated by steroids for 16 h; for repression, cells were treated with either PMA at 0.6 ng ml^–1 (for AP-1 reporter) or TNFα at 2 ng ml^–1 (for NF-κB reporter), together with various steroids. Cells were collected by addition of 1× Passive Lysis Buffer (Promega, Madison, WI, USA), and luciferase activity was assayed by the Dual-Glo Luciferase system (Promega). Data were plotted as firefly luciferase activity normalized to Renilla luciferase activity in Relative Luciferase Units.
# [1] = Spleen size and weight (spleen atrophy); assay type: in vivo, DBA/1 mice; details: 2 weeks
# Protocol: Figure 5 Examination of side effects of VSGC12 and FF at the effective dose. (a) Body weight of DBA/1 mice treated with the indicated daily dose of steroids for 2 weeks. Mice body weight was measured at day 0, 7 and 14. (b) Insulin-tolerance test of mice treated with the indicated daily doses of steroids for 7 days. Glucose level was measured at day 7 at various time points before and after insulin injection. Data were plotted as percent of the glucose level of time 0. (c) Plasma insulin levels of mice treated with the indicated daily doses of steroid for 7 days. (d) Spleen size and weight for mice treated with the indicated daily doses of steroid for 2 weeks. (e) Cortical bone thickness of femurs of mice treated with the indicated daily doses of steroid for 2 weeks. (f) Bone stiffness of femurs of mice treated with the indicated daily doses of steroid for 2 weeks. Mouse strain: DBA/1. Each treatment n=5, error bars indicate s.e.m., *P<0.05; **P<0.01; ***P<0.001.
# [2] = Bone density (μCT) and biomechanics testing of femurs; assay type: in vivo, DBA/1 mice; details: 2 weeks; for cortical bone thickness of femurs: μCT
# Protocol: Femur bones were collected and scanned by μCT (Skyscan 1172 uCT) for quantification of trabecular and cortical bone parameters. The thresholds for μCT quantification of trabecular and cortical bone parameters were set at 80–100 and 100–110, respectively. μCT analyses of cortical bone parameters were performed on 100-μCT slices (1 mm total) from the middle shaft of femurs; trabecular parameters were assessed in 100-μCT slices (1 mm total) immediately below the distal growth plate of the femur. Following uCT scans, the femurs were individually tested on a TestResources 570 Force Transducer. Bones were thawed in PBS before being tested, to ensure no brittleness was due to freezing. […] Data points were collected at a frequency of 50 Hz and a deflection rate of 0.005 mm s^–1.
smiles,measurement,setting,value
CON(C)C(=O)C1(OC(=O)c2ccco2)C(C)CC2C3CC(F)C4=Cc5c(cnn5-c5ccccc5)CC4(C)C3(F)C(O)CC21C (stereo not shown) [VSGC12],MR activity,MR,"higher MR activity than VSG22 and FP, but a lower activity than MF and a similar activity (difference not statistically significant) as FF"
same,atrophy of the spleen,[1]; 0.0625 mg kg^-1 daily,only a mild change in spleen size
same,atrophy of the spleen,[1]; 0.25 mg kg^-1 daily,less severe atrophy
same,bone strength (stiffness) of femurs,[2]; 0.0625 mg kg^-1 daily,no longer caused damage to bone strength
same,cortical bone thickness of femurs,[2]; 0.0625 mg kg^-1 daily,did not cause a significant decrease compared with vehicle treatment
same,bone strength (stiffness) of femurs,[2]; 0.25 mg kg^-1 daily,no longer caused damage to bone strength
same,cortical bone thickness of femurs,[2]; 0.25 mg kg^-1 daily,only caused a mild decrease
